{"source": "patent US12258377B2", "about": "(Scancell Limited, priority 2012, dated 2025)", "key": {"splenocytes [1]": {"test_system": "splenocytes", "test": "Ex vivo elispot assay on splenocytes of immunised HLA-DR1 / HLA-A2/DR1 (HHDII/DR1) transgenic mice", "format": "in vivo", "method": "(§1) C57BL/6 mice (Charles River, UK), HLA-DR4 mice (Taconic, USA), HHDII mice (Pasteur institute, France) and HHDII/DRI mice (Pasteur institute, France) were used, aged between 8 and 12 weeks, and cared for by the staff at Nottingham Trent University. All work was carried out under a Home Office project license. Peptides were dissolved in 10% Dimethylformamide to 1 mg/ml and then emulsified (a series of dilutions) with different adjuvants: CpG and MPLA 6 μg/mouse of each (Invivogen, UK), Incomplete Freund's […] (Sigma, UK), and GMCSF 10 μg/mouse (Peprotech, UK). Peptides (25 μg/mouse) were injected subcutaneously at the base of the tail. DNA (1 μg/mouse) was coated onto 1.0 μm gold particles (BioRad, Hemel Hempstead, UK) using the manufacturer's instructions and administered intradermally by genegun (BioRad). Homspera (10 nM/mouse) (PeptideSynthetics, UK) was injected intradermally with genegun immunisation. Mice were immunized at either day 0 for peptide immunisation or days, 0, 7, and 14 for peptide and genegun immunisation. Spleens were removed for analysis at day 14 for peptide and day 20 for peptide or genegun immunisation unless stated otherwise. 400 μg Anti-CD25 antibody (PC61) was administered i.p. in saline 3 days prior to the immunisation. 200 μg Anti-CTLA-4 antibody (UC 10-4F, 10-11) was administered i.p. in saline at day 7 and 14 with either genegun or peptide immunisation.\n(§2) Elispot assays were performed using murine IFNγ, IL-17 and IL-10 capture and detection reagents according to the manufacturer's instructions (Mabtech, Sweden). In brief, anti-IFNγ, IL-17 and IL-10 antibodies were coated onto wells of 96-well Immobilin-P plate. Synthetic peptides (at a variety of concentrations) and 5×10^5 per well splenocytes were added to the wells of the plate in triplicate. Tumour target cells were added where relevant at 5×10^4/well in triplicate and plates incubated for 40 hrs at 37° C. After incubation, captured IFNγ, […], IL-17 and IL-10 were detected by biotinylated anti-IFNγ, IL-17 and IL-10 antibodies and developed with a strepatavidin alkaline phosphatase and chromogenic substrate. Spots were analysed and counted using an automated plate reader (Cellular Technologies Ltd). Functional avidity was calculated as the concentration mediating 50% maximal effector function using a graph of effector function versus peptide concentration."}, "splenocytes [2]": {"test_system": "splenocytes", "test": "Ex vivo elispot assay on splenocytes of immunised C57B1 mice", "format": "in vivo, C57BL/6 mice", "settings": "combination of 3 citrullinated peptides (3×10 μg) with CpG and MPLA; day 14; C57B1/6 mice", "method": "as §1, §2"}, "splenocytes [3]": {"test_system": "splenocytes", "test": "Ex vivo elispot assay on splenocytes of immunised HLA-DR4 transgenic mice", "format": "in vivo", "settings": "for IFNg elispot response to citrullinated peptide over unmodified peptide or background control: citrullinated peptides 25 ug s.c. in CpG and MPLA, FIG. 34; for IL-10 elispot responses: against wild type and citrullinated peptides; for IFNγ elispot response to wild type peptide, mean / IFNγ elispot response to citrullinated peptide, mean: day 14 splenocytes; for IFNγ elispot response against vimentin 28-49 triple, double and single citrullinated peptides: peptide immunisation, FIG. 11", "method": "as §1, §2"}, "PBMC": {"test_system": "PBMC", "test": "Proliferation assay of PBMC from cancer patients", "format": "cell-based, human", "settings": "PBMC stimulated with 10 μg/ml peptide for 4, 7 and 11 days, 3H-thymidine", "method": "PBMC were isolated from freshly drawn heparinised blood by Ficol-Hypaque (Sigma) gradient centrifugation. PBMC (1.5×10^6 cells/well) were stimulated with single peptides (final concentration 10 μg/ml) in RPMI containing 5% pooled autologous human serum, 2 mM glutamine, 20 mM HEPES and Penicillin-streptomycin (1%) in a final volume of 2 ml. Stimulation with purified protein derivative, PPD (final concentration 10 μg/ml) served as a positive control for the proliferative capacity of PBMC. As a negative control PBMC were incubated with medium alone. The PBMC were cultured at 37° C. in an atmosphere of 5% CO2 for 4, 7 and 11 days. To assess proliferation at these times points 100 μl in triplicate from each culture was aliquoted into a round bottom well of a 96 well plate and ^3H-thymidine added (0.0185 MBq/well) and incubated at 37° C. for a further 8 hours. The cultures were harvested onto unifilter plates and incorporation of ^3H-thymidine was determined by β-scintillation counting. The results were assessed by calculating the stimulation index (SI) as the ratio of the mean of counts per minute (cpm) of epitope-stimulated to the mean of unstimulated cultures. The proliferative assay was considered positive when SI >2.5."}, "splenocytes [4]": {"test_system": "splenocytes", "test": "Ex vivo elispot assay on splenocytes of immunised HLA-DR1 / HLA-A2/DR1 (HHDII/DR1) transgenic mice", "format": "in vivo", "settings": "combination of 3 citrullinated peptides (3×10 μg) with CpG and MPLA; day 14; HLA-DR1 transgenic mice"}, "B16F1-DR4 cells": {"test_system": "B16F1-DR4 cells", "test": "Tumour challenge with B16F1-DR4 cells", "format": "in vivo, HLA-DR4 transgenic mice", "settings": "peptide 25 μg in CpG and MPLA s.c. or DNA via gene gun, days 4, 11, 18; versus unimmunised control", "method": "For tumour challenge experiments mice were challenged with 2.5×10^4 B16 HHDII NYESO/TAP2 siβ2m 1F10 cells or B16 DR4 2E7 cells subcutaneously on the right flank 3 days prior to primary immunisation and then were immunised as above. Anti-IFNγ antibody (300 μg/dose), anti-IL-17 antibody (200 μg/dose) and anti-HLA-DR antibody (300 μg/dose) were administered i.p. in saline at days 2, 7, 11 and 14 post tumour implant. Anti-CD4 antibody (500 μg/dose) was administered i.p.in saline at days 2 and 8 post tumour implant. Tumour growth was monitored at 3-4 days intervals and mice were humanely euthanized once tumour reached ≥10 mm in diameter."}, "[5]": {"settings": "25 μg in MPLA and CPG s.c. days 0, 7, 14, HLA-DR1 transgenic mice"}, "[6]": {"settings": "25 μg peptide with CpG and MPLA day 0, day 14"}, "[7]": {"settings": "25 μg peptide with CpG and MPLA day 0, day 14, peptide 5 μM"}, "[8]": {"settings": "25 μg peptide with CpG and MPLA day 0, peptide 5 μM"}, "[9]": {"settings": "25 μg peptide with CpG and MPLA day 0, day 14, recall peptide not specified"}}, "note": "Square brackets hold non-standard residues; d marks the D form. Ends that are not written are not given here. Cit = NC(=O)NCCC[C@H](N)C(=O)O", "data": [{"substance": "AQKKLKLVRTSPEYGMP", "values": [{"measurement": "immune response after immunisation", "setting": "splenocytes [1]; HLA-DR1 transgenic mice", "value": "failed to stimulate any immune response"}]}, {"substance": "AQKKLKLVcitTSPEYGMP (AQKKLKLV[Cit]TSPEYGMP)", "values": [{"measurement": "IFNγ/IL-17 response to the citrullinated peptide, mean", "setting": "splenocytes [1]; [5]", "value": 200, "unit": "spots/million splenocytes"}, {"measurement": "IFNγ/IL-17 response to the wild type peptide", "setting": "splenocytes [1]; [5]", "value": "no response"}, {"measurement": "response in presence of MHC class II blocking mab", "setting": "splenocytes [1]; IFNγ elispot, HLA-A2/DR1 mice", "value": "blocked"}]}, {"substance": "EAENTLQSFRQDVDNASLA [Vimentin 20]", "values": [{"measurement": "IL-17 response, screening of citrullinated 20 mer peptides", "setting": "splenocytes [2]", "value": "~400", "unit": "spots/million splenocytes"}]}, {"substance": "EKLQEEMLQREEAENTLQS [Vimentin 19]", "values": [{"measurement": "IL-17 response, screening of citrullinated 20 mer peptides", "setting": "splenocytes [2]", "value": "~400", "unit": "spots/million splenocytes"}]}, {"substance": "KLATEYMSSARSLSSEEK [ING4 44-58]", "values": [{"measurement": "IFNg elispot response to citrullinated peptide over unmodified peptide or background control", "setting": "splenocytes [3]", "value": "significant responses"}]}, {"substance": "LPNFSSLNLRETNLDSLPL [wild type vim 415-433 peptide]", "values": [{"measurement": "patients showing a proliferative response (SI >2.5)", "setting": "PBMC", "value": "8/11"}, {"measurement": "patients showing a proliferative response (SI >2.5)", "setting": "PBMC; listed as unmodified vim 415", "value": "Six of eleven"}, {"measurement": "IL-10 response, mean", "setting": "splenocytes [3]; 25 μg peptide in MPLA and CPG s.c., day 14, FIG. 30", "value": 580, "unit": "spots/million splenocytes"}, {"measurement": "IL-10 elispot responses", "setting": "splenocytes [3]; [6]", "value": "No significant IL-10 responses"}, {"measurement": "IL-2 elispot response to citrullinated peptide, mean", "setting": "splenocytes [3]; [7]", "value": "weak"}, {"measurement": "IL-17 elispot response to wild type peptide, mean", "setting": "splenocytes [3]; [7]", "value": "failed to stimulate a significant IFNγ or IL-17 response"}, {"measurement": "IFNγ elispot response to wild type peptide, mean", "setting": "splenocytes [3]; [8]", "value": "failed to stimulate a significant IFNγ or IL-17 response"}]}, {"substance": "RAPFDLFENRKKKNN [HSP90 346-360]", "values": [{"measurement": "IFNg elispot response to citrullinated peptide over unmodified peptide or background control", "setting": "splenocytes [3]", "value": "significant responses"}]}, {"substance": "RKKLSELLRYYTSASGDEMVSL [HSP90 456-477]", "values": [{"measurement": "IFNg elispot response to citrullinated peptide over unmodified peptide or background control", "setting": "splenocytes [3]", "value": "significant responses"}]}, {"substance": "RLRSSVPGVRLLQDSVDFS [Vimentin 10]", "values": [{"measurement": "IL-17 response, screening of citrullinated 20 mer peptides", "setting": "splenocytes [4]", "value": 350, "unit": "spots/million splenocytes"}]}, {"substance": "RSYVTTSTRTYSLGSALRPSTS [wild type vim 28-49]", "values": [{"measurement": "patients showing a proliferative response (SI >2.5)", "setting": "PBMC", "value": "Two of eight"}, {"measurement": "patients showing a proliferative response (SI >2.5)", "setting": "PBMC; listed as Wild type vim 28-49 peptide", "value": "2/11"}, {"measurement": "IL-10 elispot responses", "setting": "splenocytes [3]; [6]", "value": "No significant IL-10 responses"}, {"measurement": "IL-2 elispot responses", "setting": "splenocytes [3]; [9]", "value": "weak"}, {"measurement": "IL-17 elispot responses", "setting": "splenocytes [3]; [9]", "value": "weak"}, {"measurement": "IFNγ elispot response to citrullinated peptide, mean", "setting": "splenocytes [3]; [8]", "value": "1,100 /million splenocytes"}, {"measurement": "IFNγ elispot response to wild type peptide, mean", "setting": "splenocytes [3]; [8]", "value": "700 /million splenocytes"}, {"measurement": "anti-tumour response / survival", "setting": "B16F1-DR4 cells", "value": "anti-tumour response that almost reached significance"}]}, {"substance": "SAVRLRSSVPGVR [wild type vim 65-77 peptide]", "values": [{"measurement": "patients showing a proliferative response (SI >2.5)", "setting": "PBMC; listed as vim 65", "value": "Four out of eight"}, {"measurement": "patients showing a proliferative response (SI >2.5)", "setting": "PBMC; listed as vim 65-77", "value": "4/9"}, {"measurement": "IL-17 elispot response to citrullinated peptide, mean", "setting": "splenocytes [3]; [7]", "value": "weak"}, {"measurement": "IL-17 elispot response to wild type peptide, mean", "setting": "splenocytes [3]; [7]", "value": "weak"}, {"measurement": "IFNγ elispot response to citrullinated peptide, mean", "setting": "splenocytes [3]; [8]", "value": "weak"}, {"measurement": "IFNγ elispot response to wild type peptide, mean", "setting": "splenocytes [3]; [8]", "value": "weak"}]}, {"substance": "VPAYFNDAQRQATKDA [BiP 172-186]", "values": [{"measurement": "IFNg elispot response to citrullinated peptide over unmodified peptide or background control", "setting": "splenocytes [3]", "value": "significant responses"}]}, {"substance": "Vim 28-49 only citrullinated at position 28: vimentin 28-49 peptide with citrulline only at position 28 ([Cit]SYVTTSTRTYSLGSALRPSTS; UniProt P08670 28-49, looked up, fragment)", "values": [{"measurement": "IFNγ elispot response against vimentin 28-49 triple, double and single citrullinated peptides", "setting": "splenocytes [3]", "value": "gave a response to the tri-citrullinated peptide and the Vim 45 citrullinated peptide"}]}, {"substance": "YSCVGVFKNGRVEII [BiP 39-53]", "values": [{"measurement": "IFNg elispot response to citrullinated peptide over unmodified peptide or background control", "setting": "splenocytes [3]", "value": "significant responses"}]}, {"substance": "mouse vim 415 cit: murine vimentin 415-433 citrullinated peptide (LPTFSSLNL[Cit]ETNLESLPL; UniProt P20152 415-433, looked up, fragment)", "values": [{"measurement": "influence of natural Treg depletion (anti-CD25 mAb) on the response", "setting": "splenocytes [3]; 25 μg peptide day 0, PC61 three days before, IFNγ elispot day 14", "value": "no influence on the frequency or the avidity of the response"}]}, {"substance": "vim 28 and 36 citrullinated peptide: vimentin 28-49 peptide citrullinated at positions 28 and 36 ([Cit]SYVTTST[Cit]TYSLGSALRPSTS; UniProt P08670 28-49, looked up, fragment)", "values": [{"measurement": "IFNγ elispot response against vimentin 28-49 triple, double and single citrullinated peptides", "setting": "splenocytes [3]", "value": "responded to the triple"}]}]}
